The record followed here is ChEMBL document CHEMBL1201862, “PubChem BioAssay data set” (2004).

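Values below derive from 48-hour exposures of cells grown in 96-well plates, with endpoints linearly interpolated between the two concentrations bracketing the appropriate inhibition level. GI50 marks 50% less growth.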 The source made the active and inactive calls. Cut-off read from the data, not from the text of the source: active = GI50 up to about 1.1 µM and inactive = higher. Where only a bound is given, the exact number is not on record here.

Assay in all cases: growth of human tumour cells (NCI), 48 h
The test system of test [1] is A498.
Test [2] has as its system EKVX.
Test [3] relates to HCT-116.
The test system of test [4] is HCT-15.
For test [5], the system named is HOP-62.
The test system of test [6] is IGROV-1.
For test [7], the system named is K562.
The subject of test [8] is KM12.
Test [9] has as its system OVCAR-5.
In test [10] the test system is RPMI-8226.
In test [11] the test system is RXF 393.
Test [12] has as its system SF-268.
Test [13] concerns SF-539.
The subject of test [14] is SN12C.
Test [15] relates to SNB-19.
Test [16] relates to SR.
The test system of test [17] is SW-620.
Test [18] deals with UACC-257.
In test [19] the test system is MDA-MB-231.

For `N#CC(C#N)=C(C(C#N)C#N)C(C#N)C#N`, the GI50 in test [1] was > 100 µM (inactive); in test [2], > 100 µM (inactive); in test [3] it was > 100 µM (inactive); in [4], greater than 100 µM; in test [5], > 100 µM (inactive); in test [6], > 100 µM (inactive). Also, the GI50 in [7], in test [8], in [9], in test [10], in [11] and in test [12] was > 100 µM (inactive) throughout. The GI50 in test [13], in [14], in test [15], in test [16], in test [17] and in test [18] was > 100 µM (inactive) each time.

Turning to `N#Cc1c(-c2ccc([N+](=O)[O-])cc2)c(C#N)c(=O)n(NS(=O)(=O)c2ccccc2)c1S`, the GI50 in [1] is 74.6 µM (inactive); in test [2], 31.3 µM (inactive); in test [3] it was 19.4 µM (inactive); in [4] it was 36.9 µM; in test [5], > 100 µM (inactive); in test [6], 19.2 µM (inactive). Besides, the GI50 in test [7] was 30.2 µM (inactive); in [8], 25.3 µM (inactive); in test [19], 21.3 µM (inactive); in test [9], 61 µM (inactive); in [10], 20.5 µM (inactive); in [11] it was 33 µM (inactive). The GI50 was 30 µM (inactive) in test [12]; 20 µM (inactive) in test [13]; 17.4 µM (inactive) in [14]; 44.2 µM (inactive) in [15]; 22.1 µM (inactive) in [17]; 99.8 µM (inactive) in [18].

Regarding `CCN=C=NCCCN(C)C`, the GI50 in [1] is > 100 µM (inactive); in test [2] it was > 100 µM (inactive); in [3], > 100 µM (inactive); in test [4], greater than 100 µM; in test [5] it was > 100 µM (inactive); in test [6], > 100 µM (inactive). The GI50 in test [7], in test [8], in [19], in [9], in [10] and in test [11] was > 100 µM (inactive) throughout. In addition, the GI50 in [12], in [13], in test [14], in [15], in test [16] and in [17] was > 100 µM (inactive) throughout. For the same molecule, the GI50 in [18] is > 100 µM (inactive).

As for `CC(C)(C)C(=O)Nc1cccc2oc(-c3ccccc3)cc12`, the GI50 was > 100 µM (inactive) in test [1]; 65.3 µM (inactive) in test [2]; greater than 100 µM in test [4]; > 100 µM (inactive) in [5]; > 100 µM (inactive) in test [6]; > 100 µM (inactive) in test [7]. Also, the GI50 in [8] is > 100 µM (inactive); in [10], > 100 µM (inactive); in test [11], 17.3 µM (inactive); in test [13], > 100 µM (inactive); in test [14] it was > 100 µM (inactive); in test [15] it was > 100 µM (inactive). Further, the GI50 in test [16] is 88.5 µM (inactive); in test [17], > 100 µM (inactive); in test [18] it was > 100 µM (inactive).

Consider `FC(F)(F)c1ccccc1/C=N/C12CC3CC(CC(C3)C1)C2`, for which the GI50 is > 100 µM (inactive) in test [1]; > 100 µM (inactive) in test [2]; > 100 µM (inactive) in test [3]; greater than 100 µM in test [4]; > 100 µM (inactive) in [5]; > 100 µM (inactive) in test [6]. Besides, the GI50 in test [7], in test [8], in test [9], in [10], in test [11] and in test [12] was > 100 µM (inactive) throughout. For the same molecule, the GI50 is > 100 µM (inactive) in test [13]; > 100 µM (inactive) in [14]; 0.986 µM (active) in [15]; > 100 µM (inactive) in [16]; > 100 µM (inactive) in [17]; > 100 µM (inactive) in test [18].

On to `O=S1(=O)c2cc(S(=O)(=O)n3ccnc3)ccc2NC2=NCCCN21`, for which the GI50 is 28 µM (inactive) in test [1]; > 100 µM (inactive) in test [2]; 29.7 µM (inactive) in [3]; 22 µM (inactive) in [5]; 40.7 µM (inactive) in test [6]; 17.7 µM (inactive) in test [7]. Further, the GI50 in test [8] is 24.8 µM (inactive); in test [9] it was 48.1 µM (inactive); in test [10] it was 50 µM (inactive); in test [12] it was 41.2 µM (inactive); in [13], 19.6 µM (inactive); in test [14], 33.3 µM (inactive). For the same molecule, the GI50 is 78.5 µM (inactive) in test [15], 20.7 µM (inactive) in test [16], 26.2 µM (inactive) in [17] and > 100 µM (inactive) in test [18].

Regarding `O=S(=O)(c1ccccc1)N1N=C2c3ccccc3CCC[C@H]2C1c1ccccc1` (some centres not stated), the GI50 in [1] is > 100 µM (inactive); in [2] it was > 84.3 µM (inactive); in test [3], > 100 µM (inactive); in [4], greater than 100 µM; in test [5], > 100 µM (inactive); in test [6], > 100 µM (inactive). The GI50 in [7] was > 100 µM (inactive); in test [8] it was > 92.3 µM (inactive); in test [9] it was > 100 µM (inactive); in test [10] it was > 100 µM (inactive); in test [11], > 100 µM (inactive); in [12] it was > 100 µM (inactive). In addition, the GI50 is > 100 µM (inactive) in [13]; > 100 µM (inactive) in [14]; > 100 µM (inactive) in test [15]; 95.7 µM (inactive) in [16]; > 100 µM (inactive) in test [17]; > 100 µM (inactive) in [18].

On to `Cc1nc2cc(Nc3ccccc3C(=O)O)ccc2s1`, for which the GI50 is > 100 µM (inactive) in test [1]; 90.8 µM (inactive) in [3]; 63.1 µM in test [4]; > 100 µM (inactive) in test [5]; > 100 µM (inactive) in test [6]; > 100 µM (inactive) in [7]. Further, the GI50 in [8], in [9], in [10], in test [11], in test [12] and in [13] was > 100 µM (inactive) throughout. Moreover, the GI50 was 63.4 µM (inactive) in test [14], > 100 µM (inactive) in test [15], > 100 µM (inactive) in test [16] and > 100 µM (inactive) in test [17].

As to `C=CC(C)(C)[C@@]12CC3C(=O)N[C@@H](Cc4ccccc4)C(=O)N3[C@@H]1N(C(C)=O)c1ccccc12` (some centres not stated), the GI50 in [1] was > 100 µM (inactive); in test [2], 96.4 µM (inactive); in test [3] it was > 100 µM (inactive); in test [4], 58.1 µM; in test [5], > 100 µM (inactive); in test [6], > 100 µM (inactive). For the same molecule, the GI50 is 49.3 µM (inactive) in test [7]; 77.8 µM (inactive) in test [8]; > 100 µM (inactive) in test [9]; 43.2 µM (inactive) in test [10]; > 100 µM (inactive) in [13]; 75.3 µM (inactive) in [14]. The GI50 was > 100 µM (inactive) in [15], > 100 µM (inactive) in test [16], 88.7 µM (inactive) in [17] and 68.4 µM (inactive) in test [18].

Turning to `CCOC(=O)C[C@@]12CCCN[C@]1(C)CCc1ccccc12`, the GI50 was > 100 µM (inactive) in test [1]; > 100 µM (inactive) in test [2]; > 100 µM (inactive) in test [3]; greater than 100 µM in test [4]; > 100 µM (inactive) in [5]; > 100 µM (inactive) in test [6]. Further, the GI50 in test [7], in test [8], in [9], in [10], in [11] and in test [12] was > 100 µM (inactive) in each case. For the same molecule, the GI50 in test [13], in test [14], in test [15], in test [16] and in test [17] was > 100 µM (inactive) each time.

Take `CCN(CC)CCSc1c2ccccc2nc2c(OC)ccc(OC)c12`: the GI50 in test [1] is 13.3 µM (inactive); in test [2] it was > 56.6 µM (inactive); in test [3], 3.04 µM (inactive); in [4] it was 3.15 µM; in [5] it was 31.8 µM (inactive); in test [6], 6.32 µM (inactive). For the same molecule, the GI50 in test [7] is 2.94 µM (inactive); in test [8], 5.79 µM (inactive); in test [9], 29.9 µM (inactive); in [10], 2.23 µM (inactive); in test [11], 1.94 µM (inactive); in test [12] it was 15.1 µM (inactive). Also, the GI50 was 5.73 µM (inactive) in test [14]; 43.6 µM (inactive) in test [15]; 1.1 µM (active) in [16]; 2.08 µM (inactive) in test [17]; 3.78 µM (inactive) in [18].

With `CC1=C(C#N)C(=O)CC(c2ccc(Cl)cc2)N(C)N1` (configuration not stated), the GI50 in test [1] is > 100 µM (inactive); in test [3] it was > 100 µM (inactive); in [4], greater than 100 µM; in [5], > 100 µM (inactive); in test [8] it was > 100 µM (inactive); in [9] it was > 100 µM (inactive). The GI50 in test [10], in test [11], in test [12], in test [14], in test [15] and in test [16] was > 100 µM (inactive) each time. Moreover, the GI50 in test [17] and in test [18] was > 100 µM (inactive) in each case.
